System: zebrafish
Assay: Toxicity to zebrafish, semi-static method, 96 hours
Protocol: Test agents: avermectin, milbemycin, ivermectin, tenvermectin A and tenvermectin B were all from Zhejiang Hisun Pharmaceutical Co., Ltd. The samples were formulated into 50 mg/ml mother liquors with DMF.
Test fish and water: zebrafish (Brachydanio rerio) was purchased from Zhejiang Academy of Agricultural Sciences, with the same size, average body length of 2-3 cm and average body weight of 0.3 g. The zebrafish was domesticated for 7 days indoors before the test. […] Feeding was stopped 1 day before the test and the fish were not fed during the test. The test water was tap water with residual chlorine removed by exposure to the sun for more than 24 hours, and the pH thereof was 6.8.
Test methods: semi-static method. Three level differences were provided for each sample: 0.5 ppm, 1.0 ppm and 1.5 ppm, and three parallel groups were provided for each level difference, 10 zebrafish were raised for each group, and blank controls (one group without agents and one group with only solvent) were provided. The corresponding volume of mother liquor was taken according to the concentration as required for each sample, and the volume of each sample was adjusted to 150 μl with DMF, and then each sample was added to the test group (containing 1.6 L of water). The room temperature was controlled at 22±2° C. for 96 hours, and the water was changed every 24 hours and the samples were re-added. The fish mortality rate was recorded for the first 8 hours and at 24, 48, 72 and 96 hours, and the dead fish were removed in time.

Row | Compound | Survival condition (survival rates/%) (0.5 ppm, 8 h) | Survival condition (survival rates/%) (0.5 ppm, 24 h) | Survival condition (survival rates/%) (0.5 ppm, 48 h) | Survival condition (survival rates/%) (0.5 ppm, 72 h) | Survival condition (survival rates/%) (0.5 ppm, 96 h) | Survival condition (survival rates/%) (1.0 ppm, 8 h) | Survival condition (survival rates/%) (1.0 ppm, 24 h) | Survival condition (survival rates/%) (1.0 ppm, 48 h) | Survival condition (survival rates/%) (1.0 ppm, 72 h) | Survival condition (survival rates/%) (1.0 ppm, 96 h) | Survival condition (survival rates/%) (1.0 ppm, 96 h, listed as tenvermectin A) | Survival condition (survival rates/%) (1.5 ppm, 8 h) | Survival condition (survival rates/%) (1.5 ppm, 24 h) | Survival condition (survival rates/%) (1.5 ppm, 48 h) | Survival condition (survival rates/%) (1.5 ppm, 72 h) | Survival condition (survival rates/%) (1.5 ppm, 96 h) | 96-hour LC50 on zebrafish (96 hours, semi-static) | toxicity to zebrafish, in words (in vivo)
1 | COC1CC(OC2C(C)OC(OC3C(C)=CCC4CC(CC5(CCC(C)C(C)O5)O4)OC(=O)C4C=C(C)C(O)C5OCC(=CC=CC3C)C45O)CC2OC)OC(C)C1O (centres unmarked) [Tenvermectin A, tenvermectin A] | 100% | 100% | 100% | 100% | 100% | 100% | 100% | 100% | 100% | 100% | greater than 50% | 100% | 100% | 100% | 100% | 100% | > 1 ppm | –
2 | CC[C@H]1O[C@]2(CC[C@@H]1C)C[C@@H]1C[C@@H](C/C=C(\C)[C@@H](O[C@H]3C[C@H](OC)[C@@H](O[C@H]4C[C@H](OC)[C@@H](O)[C@H](C)O4)[C@H](C)O3)[C@@H](C)/C=C/C=C3\CO[C@@H]4[C@H](O)C(C)=C[C@@H](C(=O)O1)[C@]34O)O2 [Tenvermectin B, tenvermectin B] | 100% | 70% | 50% | 0% | – | 53% | 0% | – | – | – | – | 10% | 0% | – | – | – | – | did not reach the level of middle toxic

Source: patent US20190151341A1, “APPLICATION OF TENVERMECTIN FOR PREVENTING AND TREATING PARASITE INFECTION” (ZHEJIANG HISUN PHARMACEUTICAL CO., LTD., priority 2016, published 2019)
